Earlier results in patent US20050209190A1, “Camptothecin complexes” (priority 2000, published 2005).

What was measured:
[1] = system: human colon cancer xenografts; details: mouse, in vivo
[2] = system: nontumorigenic human cells; details: in vitro
tumorigenic human cells = details: in vitro
[3] = administered intravenously; studies abandoned

Structure (SMILES): CC[C@@]1(O)C(=O)OCc2c1cc1n(c2=O)Cc2cc3cc4c(cc3nc2-1)OCO4 [10,11 MD, 10,11-Methylendioxy-20(S)-Camptothecin]
- anticancer activity against human colon cancer xenografts [1]: high anticancer activity

Structure (SMILES): CC[C@@]1(O)C(=O)OCc2c1cc1n(c2=O)Cc2cc3c([N+](=O)[O-])cccc3nc2-1 [Example 9NC, 9-nitrocamptothecin]
- growth of human tumor xenografts (human tumor xenografts; immunodeficient nude mice): inhibited the growth
- activity against human tumor xenograft models (human tumor xenografts; mouse, in vivo): high activity
- regression of human tumors established as xenografts (human tumor xenografts; nude mice): induced regression

Structure (SMILES): CC[C@@]1(O)C(=O)OCc2c1cc1n(c2=O)Cc2cc3ccccc3nc2-1 [CPT, 20(S)-camptothecin]
- effect on nontumorigenic cells [2]: cytostatic
- effect on tumorigenic cells (tumorigenic human cells): cytotoxic
- solubility in water: insoluble in water

Structure (SMILES): CC[C@@]1(O)C(=O)OCc2c1cc1n(c2=O)Cc2cc3c(N)cccc3nc2-1 [Example 9AC, 9-Amino-20(S)-Camptothecin]
- anticancer activity against human colon cancer xenografts [1]: high anticancer activity

Structure (SMILES): CC[C@@](O)(C(=O)[O-])c1cc2n(c(=O)c1CO)Cc1cc3ccccc3nc1-2.[Na+] [CPT Na+]
- potency in clinical trials [3]: low potency
- toxicity in clinical trials [3]: high toxicity
